Reference: ChEMBL document CHEMBL1782050, “Discovery of new nanomolar peroxisome proliferator-activated receptor γ activators via elaborate ligand-based modeling” (Eur J Med Chem, 2011)

Biological target: T1, Peroxisome proliferator-activated receptor gamma (Homo sapiens, UniProt P37231)
T1 sequence (P37231 whole entry): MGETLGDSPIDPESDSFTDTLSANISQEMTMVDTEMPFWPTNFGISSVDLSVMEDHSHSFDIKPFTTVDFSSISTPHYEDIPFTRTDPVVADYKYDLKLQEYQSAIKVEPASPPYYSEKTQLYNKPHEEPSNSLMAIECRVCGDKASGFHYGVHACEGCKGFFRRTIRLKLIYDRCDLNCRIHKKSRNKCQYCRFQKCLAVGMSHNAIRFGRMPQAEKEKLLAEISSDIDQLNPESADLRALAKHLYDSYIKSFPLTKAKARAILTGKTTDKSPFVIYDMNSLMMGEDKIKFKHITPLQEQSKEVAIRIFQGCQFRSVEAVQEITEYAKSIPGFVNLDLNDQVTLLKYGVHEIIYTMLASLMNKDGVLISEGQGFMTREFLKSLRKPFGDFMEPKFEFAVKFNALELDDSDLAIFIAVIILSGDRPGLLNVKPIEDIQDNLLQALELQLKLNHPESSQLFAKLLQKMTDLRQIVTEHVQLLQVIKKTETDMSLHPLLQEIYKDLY
Format: functional, cell-based, HepG2
Description: Agonist activity at PPARgamma receptor expressed in human HepG2 cells by PPRE-luciferase reporter gene assay

Question: For `COc1ccc(-c2nc(SCC(=O)O)n(-c3ccccn3)c2-c2ccc(OC)cc2)cc1`, which EC50 is on record?
Answer: 224 nM

Question: `COC1=C(OC)Cc2c(cc[n+]3c(CCC(=O)O)c4cc(OC)c(OC)cc4cc23)C1` was tested. Which EC50 did it give?
Answer: 220000 nM

Question: `Cc1ccc(S(=O)(=O)Oc2ccc(N(CC(=O)O)S(=O)(=O)c3ccc(C)cc3)cc2)cc1` was tested. Which EC50 did it give?
Answer: 15.3 nM
